SMILES strings stand for the structures.

The assay concerns SK-MEL-5 TRPM1-promoter luciferase reporter, 24 h. The assay is described as follows: reducers of TRPM1 reporter luminescence, concentration series – cell-based, SK-MEL-5, cherry-picked, set 4, MITF inhibitor project, dose response (AID 493102).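 Also: actives lower the luciferase signal so the potency reflects inhibition of reporter expression.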

For orientation: AC50 means the midpoint of the concentration-response curve, whichever way the signal moves. Consider `Cc1c(CCOC(=O)c2ccc(Cl)cc2Cl)sc[n+]1CC(=O)c1ccc(Br)cc1`, for which the AC50 is 19.8 µM.

Regarding `COc1cc2c(cc1/C=C/[N+](=O)[O-])OCO2`, the AC50 is 8.98 µM.

Turning to `O=[N+]([O-])c1ccc(/C=N/Nc2ccnc3cc(Cl)ccc23)o1`, the AC50 was 15.3 µM.

With `CCn1c(/C=C/Nc2ccccc2)[n+](CC)c2cc(Cl)c(Cl)cc21`, the AC50 was 14.5 µM.

`COc1cc2c(c(OC)c1OC)-c1ccc(OC)c(=O)cc1C(NC(C)=O)CC2` (stereo not drawn): the AC50 is 0.056 µM.

As to `Cn1cc(C(=O)CCl)c2ccccc21`, the AC50 is 8.48 µM.

For the compound `CCN(CC)CCCNC1=C(Cl)C(=O)c2ccccc2C1=O`, the AC50 was 1.79 µM.

Take `Cc1cccc2sc(N(CCCN(C)C)C(=O)c3nc4ccccc4s3)nc12`: the AC50 is 10.9 µM.

As to `O=C1NC(=O)N(Cc2ccccc2Cl)C(=O)/C1=C/c1cccs1`, the AC50 is 29.7 µM.

Regarding `Cc1ccc(S(=O)(=O)N2CCCCC2)cc1NC(=O)Cn1ncc(Cl)c(Cl)c1=O`, the AC50 was 6.21 µM.

For the compound `C=C1CCC[C@]2(C)C[C@H]3OC(=O)C(CN4CCCCC4CO)[C@H]3CC12` (stereo partly drawn), the concentration at half-maximal activity (AC50) was 11 µM.

Regarding `CN(C)c1ccc(-n2cccc2/C=C/[N+](=O)[O-])cc1`, the AC50 was 10.2 µM.

As for `CCN1CCN(c2ccc(Nc3ccnc4ccccc34)cc2)CC1`, the concentration at half-maximal activity (AC50) is 12.3 µM.

For `CCCC(=O)N1CCN(c2ccc(NC(=O)c3ccc([N+](=O)[O-])o3)cc2Cl)CC1`, the AC50 is 7.65 µM.

Consider `O=C(O)c1cccc(N/N=C/c2ccc(OC(F)(F)F)cc2)c1`, for which the AC50 is 5.95 µM.

With `Cc1ccc(NC(=O)c2cc(N3C(=O)C=CC3=O)ccc2N2CCOCC2)cc1`, the AC50 was 11.6 µM.

Turning to `CN1C(=O)/C(=C/c2cccn2-c2ccc3ccccc3c2)C(=O)NC1=S`, the AC50 was 9.42 µM.

As for `O=C(COC(=O)c1ccccc1C(=O)c1ccc(Cl)c([N+](=O)[O-])c1)NC1CC1`, the AC50 was 8.92 µM.

Consider `Cc1ccc2nc(C)cc(Nc3ccc([N+](=O)[O-])cc3)c2c1`, for which the AC50 is 5.88 µM.

On to `N#C/C(=C(/O)CCl)c1nc2ccccc2[nH]1`, for which the half-maximal activity concentration (AC50) was 4.6 µM.

With `COC(=O)C1=C(C)N(Cc2ccccc2)C(=NCCc2cccnc2)N[C@H]1c1ccc(Br)cc1`, the AC50 was 17.8 µM.

On to `COC1=C(c2ccccc2)C(=O)c2ccccc2C1=O`, for which the AC50 is 9.05 µM.

Regarding `CN(C)S(=O)(=O)c1ccc(-c2csc(N/N=C/c3ccco3)n2)cc1`, the concentration at half-maximal activity (AC50) was 3.9 µM.

For `CCN1CCN(C2=C(NS(=O)(=O)c3ccc(Br)cc3)C(=O)c3ccccc3C2=O)CC1`, the AC50 is 5.71 µM.

On to `CN(C)S(=O)(=O)c1cccc(NC(=O)CSc2nc3c(cc2C#N)C(=O)CC(C)(C)C3)c1`, for which the AC50 was 9.02 µM.

Turning to `O=C(Cc1ccccc1)NCC(=O)N/N=C/c1ccc([N+](=O)[O-])s1`, the AC50 was 16.1 µM.

`Nc1ccc(-c2ncc(-c3ccccc3)o2)cc1`: the AC50 was 0.171 µM.

Turning to `O=C(N/N=C/c1cc(Br)ccc1O)c1ccncc1`, the AC50 was 9.36 µM.

Consider `CCOC(=O)c1[nH]cnc1N=Nc1c(O)ccc2ccccc12`, for which the AC50 was 3.76 µM.

In the case of `COc1cc2c(cc1OC)C(c1ccccc1)N(C(=O)CCl)CC2` (stereo not drawn), the AC50 was 5.36 µM.

On to `O=C(N/N=C\c1ccc([N+](=O)[O-])s1)c1cncc(Br)c1`, for which the AC50 was 4.34 µM.

With `CN(C(=O)/C=C/c1ccc([N+](=O)[O-])s1)c1ccccc1`, the AC50 is 9.11 µM.

As for `O=C(Nc1ccc(Nc2ccncc2)cc1)c1ccc([N+](=O)[O-])cc1`, the half-maximal activity concentration (AC50) is 7.22 µM.

As to `CC(=O)Nc1ccc(S(=O)(=O)N2CCn3cccc3C2C)cc1` (stereo not drawn), the AC50 is 28.7 µM.

For `O=C(/C=C/c1ccc([N+](=O)[O-])s1)N1CCCCC1`, the AC50 is 4.16 µM.

For the compound `Oc1c(CN2CCCC2)cc(COCc2ccccc2)c2cccnc12`, the AC50 was 6.15 µM.

On to `COc1cc(SC)ccc1C(=O)Nc1ncc(C)s1`, for which the concentration at half-maximal activity (AC50) was 3.65 µM.

On to `N/C(=N\OC(=O)c1ccccc1Cl)c1ccccn1`, for which the AC50 is 8.87 µM.

Turning to `O=C(N/N=C/c1ccc([N+](=O)[O-])s1)C(O)c1ccccc1` (stereo not drawn), the AC50 was 4.48 µM.

`O=C(O)c1cccc(COc2ccccc2Cl)c1`: the AC50 is 0.756 µM.

On to `CC1CCC(C(C)C)C(OC(=O)C[n+]2cc(-c3ccc(Cl)cc3)n3c2CCCCC3)C1` (stereo not drawn), for which the AC50 was 6.97 µM.

With `O=C(N/N=C/c1ccc(F)cc1)c1c(O)c2ccccc2[nH]c1=O`, the AC50 was 9.64 µM.

As for `O=C(Nc1ccc2nc3n(c(=O)c2c1)CCCCC3)c1cc([N+](=O)[O-])ccc1F`, the AC50 was 10.7 µM.

For `CC1CCN(Cc2nc(-c3ccc(Cl)cc3)no2)CC1`, the AC50 was 7.62 µM.

For the compound `Cc1cc(C(=O)CN2C(=O)c3ccccc3S2(=O)=O)c(C)n1-c1ccccc1`, the AC50 was 3.45 µM.

Turning to `COc1cc(C2C(C#N)=C(N)Oc3cc4c(cc32)OCO4)cc(OC)c1OC` (stereo not drawn), the concentration at half-maximal activity (AC50) was 0.365 µM.

Consider `OCCNc1c2ccccc2nc2c(F)c(F)c(F)c(F)c12`, for which the concentration at half-maximal activity (AC50) is 4.14 µM.

Regarding `CCN1CCN(c2ccc(S(=O)(=O)N3CCOCC3)cc2NC(=O)/C=C/c2ccc([N+](=O)[O-])cc2)CC1`, the concentration at half-maximal activity (AC50) was 8.13 µM.

On to `COc1ccc2[nH]cc(C(=O)CCl)c2c1`, for which the AC50 was 5.65 µM.

As to `O=C(/C=C\c1ccccc1)NCC(=O)N/N=C/c1ccc(O)cc1O`, the AC50 is 7.99 µM.

As for `CC(=O)N1CCc2c(sc(NC(=O)c3ccc([N+](=O)[O-])o3)c2C#N)C1`, the AC50 is 2.22 µM.

Take `CCN(CC)CCNC(=O)c1ccc(NC(=O)c2cccc(S(=O)(=O)N3c4ccccc4CC3C)c2)cc1` (stereo not drawn): the concentration at half-maximal activity (AC50) was 10.5 µM.

With `O=C(N/N=C/c1ccccc1Cl)c1n[nH]c2c1CCCC2`, the concentration at half-maximal activity (AC50) was 7.97 µM.

As for `N#CC(C#N)=C1C=CC=CN1/C(=C\c1ccco1)C(=O)c1ccc(Cl)cc1`, the AC50 is 6.85 µM.

For `Cc1ccc(NCC(=O)N/N=C\c2ccc([N+](=O)[O-])o2)cc1`, the AC50 is 19.1 µM.

For `O=C(CCl)N(c1ccccc1)c1c[nH]c2ccccc12`, the AC50 is 5.08 µM.

Regarding `CC(=O)N(C)C1=C(N2CCOCC2)C(=O)c2ccccc2C1=O`, the half-maximal activity concentration (AC50) was 3.5 µM.

Regarding `Cc1ccc(C(C)C)c(OCc2nn(CC(=O)c3ccc(Cl)cc3)c3[n+]2CCCCC3)c1`, the AC50 was 9.83 µM.

With `CCOC(=O)/C=c1\s/c(=C\c2ccc3cc(OC)ccc3c2)c(=O)n1CC(=O)NCC1CCCO1` (stereo not drawn), the AC50 was 5.73 µM.

For `COc1cc(CNC2CCCC2)cc(Cl)c1OCc1ccccc1Cl`, the AC50 was 17.7 µM.

As to `CN1CCN(c2ccc(NC(=O)c3ccc([N+](=O)[O-])o3)cc2Cl)CC1`, the AC50 was 9.02 µM.

Turning to `CC(C)(C)c1ccc(-c2noc(CCC(=O)NCC3CCCO3)n2)cc1` (stereo not drawn), the AC50 was 0.275 µM.

Consider `COc1ccc(C(=O)/C=C/Nc2ccccn2)cc1`, for which the AC50 was 3.72 µM.

Consider `COCCn1c(C)cc(C(=O)COC(=O)c2ccccc2Br)c1C`, for which the half-maximal activity concentration (AC50) is 1.14 µM.

Take `CN(C)c1nc(C=C(C#N)C#N)c(Cl)n1-c1ccc(F)cc1`: the AC50 was 3.92 µM.

As for `CC(NC(=O)C12CC3CC(CC(C3)C1)C2)C(=O)NN=Cc1ccc([N+](=O)[O-])o1` (stereo not drawn), the AC50 was 7.79 µM.

`O=C(CNc1cccc([N+](=O)[O-])c1)N/N=C/c1ccc([N+](=O)[O-])o1`: the AC50 was 8.63 µM.

As for `CS(=O)(=O)c1ccc(S(=O)CC(=O)OCc2ccccc2)c([N+](=O)[O-])c1` (stereo not drawn), the AC50 was 5.46 µM.

As for `CN=c1scc(-c2ccccc2F)n1/N=C/c1ccc[nH]1`, the AC50 was 0.019 µM.

`CC(C)(C)C(=O)Cn1ncc(Cl)c(Cl)c1=O`: the AC50 was 10.4 µM.

As for `CC1CN(C(=O)CCC(=O)NCCCN2CCC(Cc3ccccc3)CC2)c2cc(Cl)ccc2O1` (stereo not drawn), the AC50 was 16.2 µM.

On to `Nc1ccc(Oc2cccc(Oc3ccc(N)cc3)c2)cc1`, for which the AC50 was 1.1 µM.

For `CCOC(=O)N1C(=O)[C@](CC)(c2ccccc2)N1C(=O)OCC`, the AC50 was 10 µM.

Consider `COc1cc2c(cc1OC)C(SC)=NC1(CCCC1)C2`, for which the AC50 is 9.44 µM.

Turning to `O=[N+]([O-])c1ccc(/C=N/N=C/c2ccc([N+](=O)[O-])o2)o1`, the AC50 is 9.36 µM.

Regarding `CCOc1ccc(-c2cc(C)[n+](CCO)c(-c3ccc(OCC)cc3)c2)cc1`, the AC50 is 11.1 µM.

On to `Cc1ccc(-n2[nH]c(=O)c(-c3ccccn3)c2C)cc1`, for which the concentration at half-maximal activity (AC50) was 3.23 µM.

As for `Cc1cc(C)c2nc3nc(C)cc(C)c3c(N)c2c1`, the AC50 is 5.72 µM.

Take `O=C(O)c1cc2ccccc2c(N=Nc2cccnc2)c1O`: the AC50 was 11.4 µM.

Consider `CCOc1cc(/C=C(/C#N)c2ccc(Cl)cc2)cc(Cl)c1OCC(=O)O`, for which the AC50 is 5.61 µM.

For the compound `CC1CCCC(NC(=O)NC(=O)CCl)C1C` (stereo not drawn), the AC50 is 12.4 µM.

As for `CN(C)CCNC(=O)/C(=C/c1ccc(-c2ccc(Cl)cc2Cl)o1)NC(=O)c1ccccc1`, the AC50 is 4.97 µM.

`COC(=O)CSC1=C(C#N)C(=O)NC(c2ccccc2)S1` (stereo not drawn): the AC50 was 7.06 µM.

Consider `CCCCC[n+]1ccn(C2=C([O-])c3ccccc3C(=O)/C2=N\S(=O)(=O)c2ccccc2)c1`, for which the AC50 was 5.9 µM.

`CC(=O)Nc1nc(C)c(-c2csc(Nc3cccc(C(C)=O)c3)n2)s1`: the AC50 is 8.38 µM.

Turning to `CC(C)n1c(O)c(C2c3cc(Cl)ccc3Oc3[nH]c(=O)n(C(C)C)c(=O)c32)c(=O)[nH]c1=O` (stereo not drawn), the AC50 is 5.39 µM.

For the compound `O=C(Nc1ccc(N2CCCC2)c(Cl)c1)c1ccc([N+](=O)[O-])o1`, the AC50 is 11.1 µM.

For `CC1=NOC(=O)/C1=C\c1ccc(-c2cccc(Cl)c2)o1`, the AC50 was 5.36 µM.

In the case of `O=C1CCC2S/C(=C/Nc3ccc(C(F)(F)F)cc3)C(=O)N12` (stereo not drawn), the AC50 was 3.57 µM.

`CC(C)n1cc(/C=C/c2cc[n+](C)cc2)c2ccccc21`: the AC50 is 8.14 µM.

In the case of `Cc1ccc(-c2c[n+](Cc3ccc(Cl)c(Cl)c3)c3n2CCC3)cc1`, the AC50 is 3.73 µM.

For the compound `COc1ccc(COC(=O)c2cc([N+](=O)[O-])ccc2N2CCOCC2)cc1F`, the AC50 is 0.023 µM.

In the case of `COC1=C(Nc2ccc(O)cc2)C(=O)c2ccccc2C1=O`, the AC50 was 5.14 µM.

As for `COc1cc(NC(=O)c2ccc([N+](=O)[O-])o2)ccc1NC(=O)c1cccs1`, the AC50 was 8.46 µM.

On to `Cc1ccc(NC(=O)CCC(=O)N/N=C/c2ccc([N+](=O)[O-])o2)cc1C`, for which the half-maximal activity concentration (AC50) was 6.25 µM.

As for `O=C(/C=C/c1cccc([N+](=O)[O-])c1)c1cccs1`, the AC50 is 15.3 µM.

Regarding `CC(NC(=O)c1ccc([N+](=O)[O-])o1)C12CC3CC(CC(C3)C1)C2` (stereo not drawn), the AC50 was 15.1 µM.

Consider `O=C1NC(=O)C(=Cc2ccc(-c3cc(Cl)ccc3[N+](=O)[O-])o2)C(=O)N1`, for which the AC50 is 17.2 µM.

The values above are taken from PubChem BioAssay AID493102 (Broad Institute, 2011).
